Laboratory results: patent publication US20260272924A1, “ISOINDOLINE DERIVATIVE, BENZOINDOLE DERIVATIVE AND USE THEREOF” (SHANGHAI HELIOSON PHARMACEUTICAL CO., LTD., priority 2023, published 2026)
pIC50: −log10 of the molar value. Like-named read-outs stand apart in the source and are kept apart here.

How the values were obtained:
[1] = test system: NCI-H929 multiple myeloma cells; assay: Cell Titer-GLO (CTG) assay for proliferation of NCI-H929 cells; format: cell-based; settings: Homo sapiens, 72 hours
Outline: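 NCI-H929 cells, 5000/well, treated next day with compound from 0.00512 to 400 nM (5-fold steps, duplicates) for 72 h at 37° C. Viability by CellTiter-Glo luminescence, normalised to 0.1% DMSO and medium blank; IC50 and maximal inhibition from nonlinear dose-response regression.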

IKZF1 = biological target: T1, IKZF1 (Homo sapiens, UniProt Q13422+Q96SW2); assay: Protein degradation assay (In-Cell Western), IKZF1; format: cell-based; settings: NCI-H929 cells, 24 hours
T1 construct: NCI-H929 cells were inoculated into a 96-well plate at 100,000 cells per well and cultured overnight; endogenous in cells; host or cells: NCI-H929
Method: (§1) NCI-H929 cells were inoculated into a 96-well plate at 100,000 cells per well and cultured overnight. Compounds at concentrations of 1600 nM, 400 nM, 100 nM, 25 nM, 6.25 nM, 1.56 nM, 0.39 nM, and 0.1 nM were dosed with duplicate wells, and the cells were incubated in an incubator at 37° C. for 24 hours. After the incubation, the supernatant was removed by centrifugation, and 150 μL of 4% paraformaldehyde was added. The cells were incubated at room temperature for 20 minutes, then, 200 μL of a washing solution (0.1% TritonX-100, Beyotime; ST1722) was added and incubated at room temperature on a shaker. After repeating the washing four times, 150 μL of a Licor INTERCEPT blocking solution (Lico, Cat No. 927-70001) was added, and the cells were incubated on a shaker at room temperature for 1.5 hours. Antibodies IKZF1 (Cell Signaling; Cat No. 14859S), IKZF3 (Cell Signaling; Cat No. 15103S), GSPT1 (Proteintech, Cat No. 10763-1-AP), CK1a (Thermo; 7117067), and SALL4 (Abcam, ab22675) were diluted with an antibody dilution solution (Intercept Blocking Buffer, LI-COR, 211114) at 1:100 and 50 μL of each diluted primary antibody was added into the 96-well plate. The cells were incubated overnight on a shaker at 4° C. After the primary antibodies were removed and repeated washing was performed with PBST for 4 times, 50 μL of a diluted secondary antibody (Licor, Cat No. 926-68070) was added, and IRDye 800CW and IRDye 680CW were added at 0.5 μL simultaneously. The secondary antibody was sucked away, PBST was added, repeated washing was performed on a shaker at room temperature for 4 times, and a signal intensity was detected using an infrared laser imaging system (Lico, Odyssey-CLx).

IKZF3 = biological target: T2, IKZF3 (Homo sapiens, UniProt Q96SW2+Q9UKT9); assay: Protein degradation assay (In-Cell Western), IKZF3; format: cell-based; settings: NCI-H929 cells, 24 hours
T2 construct: endogenous in cells; host or cells: NCI-H929
Method: as §1

CRBN = biological target: T3, CRBN (Homo sapiens, UniProt Q96SW2); assay: CRBN binding assay (HTRF competition)
T3 construct: purchased Cisbio 64BDCRBNPEG
Description: Bonding activity between CRBN and compounds were detected by the HTRF competition assay using a CRBN binding kit (Cisbio, 64BDCRBNPEG). First, a reagent in the kit was equilibrated to room temperature and diluted to 1 fold with double-distilled water, and both the reagent and samples were uniformly mixed by thorough vortexing for later use. An europium-labeled specific GST antibody and an XL665-labeled thalidomide-red reagent (Cisbio, Cat No. 64BDCRBNPEG) were mixed in equal volumes in advance and then added into a 384-well white microplate at 10 μL per well. […] After uniform mixing, contents in the 384-well plate were sealed and incubated in the dark at room temperature for 3 hours.

[2] = patients, literature; cited from earlier work
[3] = clinical phase I trial, combined with dexamethasone, RRMM patients; cited from earlier work
[4] = GST-labeled CRBN WT protein, thalidomide-red competition, 3 hours, read-out: HTRF CRBN IC50

Compound	pIC50 [1]	DC50 (IKZF1) [nM]	Dmax (IKZF1) [%]	DC50 (IKZF3) [nM]	Dmax (IKZF3) [%]	pIC50 (CRBN; [4])	incidence rate of G3/G4 neutropenia [2]	pIC50 (CRBN)	objective response rate (ORR) [3] [%]
O=C1CC[C@H](N2Cc3c(OCc4ccc(CN5CCN(c6ccnc(-n7ccnc7)n6)CC5)cc4)cccc3C2=O)C(=O)N1 [Example 1, (S)-3-(4-((4-((4-(2-(1H-imidazol-1-yl)pyrimidin-4-yl)piperazin-1-yl)methyl)benzyl)oxy)-1-oxoisoindolin-2-yl)piperidin-2,6-dione]	10.52	0.31	75.8	0.12	71.4	–	–	–	–
O=C1CCC(N2C(=O)c3cccc4c(Cc5ccc(CN6CCN(c7ccnc(-n8ccnc8)n7)CC6)cc5)ccc2c34)C(=O)N1 (centres unmarked) [Example 3, 3-(6-(4-((4-(2-(1H-imidazol-1-yl)pyrimidin-4-yl)piperazin-1-yl)methyl)benzyl)-2-oxobenzo[cd]indol-1(2H)-yl)piperidin-2,6-dione]	11.52	0.081	73.6	0.05	76.6	–	–	–	–
Cc1ncc(-c2nc(N3CCN(Cc4ccc(Cc5ccc6c7c(cccc57)C(=O)N6C5CCC(=O)NC5=O)cc4)CC3)cc(C(F)(F)F)n2)s1 (centres unmarked) [Example 21, 3-(6-(4-((4-(2-(2-methylthiazol-5-yl)-6-(trifluoromethyl)pyrimidin-4-yl)piperazin-1-yl)methyl)benzyl)-2-oxobenzo[cd]indol-1(2H)-yl)piperidin-2,6-dione]	9.70	8.86	57.1	0.22	74.1	7.47	–	–	–
Cc1nnc(-c2cccc(N3CCN(Cc4ccc(Cc5ccc6c7c(cccc57)C(=O)N6C5CCC(=O)NC5=O)cc4)CC3)n2)s1 (centres unmarked) [Example 22, 3-(6-(4-((4-(6-(5-methyl-1,3,4-thiadiazol-2-yl)pyridin-2-yl)piperazin-1-vA)methyl)benzyl)-2-oxobenzo[cd]indol-1(2H)-yl)piperidin-2,6-dione]	10.70	0.1	65.3	0.056	76.4	7.70	–	–	–
Nc1cccc2c1CN(C1CCC(=O)NC1=O)C2=O (centres unmarked) [lenalidomide]	–	–	–	–	–	–	up to 35%	–	–
N#Cc1ccc(N2CCN(Cc3ccc(COc4cccc5c4CN([C@H]4CCC(=O)NC4=O)C5=O)cc3)CC2)c(F)c1 [CC-92480, reference compound]	–	–	–	–	–	–	–	6.97	54.4
O=C1CCC(N2C(=O)c3cccc4c(Cc5ccc(CN6CCN(c7ccnc(-n8cnc(C(F)(F)F)c8)n7)CC6)cc5)ccc2c34)C(=O)N1 (centres unmarked) [Example 25, 3-(2-oxo-6-(4-((4-(2-(4-(trifluoromethyl)-1H-imidazol-1-yl)pyrimidin-4-yl)piperazin-1-yl)methyl)benzyl)benzo[cd]indol-1(2H)-yl)piperidin-2,6-dione]	10.40	0.98	60	0.075	76.2	7.42	–	–	–
Cc1ncn(-c2cccc(N3CCN(Cc4ccc(Cc5ccc6c7c(cccc57)C(=O)N6[C@H]5CCC(=O)NC5=O)cc4)CC3)n2)n1 [Example 37, (S)-3-(6-(4-((4-(6-(3-methyl-1H-1,2,4-triazol-1-yl)pyridin-2-yl)piperazin-1-yl)methyl)benzyl)-2-oxobenzo[cd]indol-1(2H)-yl)piperidin-2,6-dione]	11.00	–	–	–	–	8.10	–	–	–
Cc1ncn(-c2cccc(N3CCN(Cc4ccc(Cc5ccc6c7c(cccc57)C(=O)N6C5CCC(=O)NC5=O)cc4)CC3)n2)n1 (centres unmarked) [Example 23, 3-(6-(4-((4-(6-(3-methyl-1H-1,2,4-triazol-1-yl)pyridin-2-yl)piperazin-1-yl)methyl)benzyl)-2-oxobenzo[cd]indol-1(2H)-yl)piperidin-2,6-dione]	11.00	0.077	65.8	0.036	77.1	7.72	–	–	–
Cc1nc(N2CCN(Cc3ccc(Cc4ccc5c6c(cccc46)C(=O)N5[C@H]4CCC(=O)NC4=O)cc3)CC2)cc(-n2cnc(C(F)(F)F)c2)n1 [Example 30, (S)-3-(6-(4-((4-(2-methyl-6-(4-(trifluoromethyl)-1H-imidazol-1-yl)pyrimidin-4-yl)piperazin-1-yl)methyl)benzyl)-2-oxobenzo[cd]indol-1(2H)-yl)piperidin-2,6-dione]	11.00	0.37	74.1	0.093	73.2	7.57	–	–	–
Nc1cccc2c1C(=O)N(C1CCC(=O)NC1=O)C2=O (centres unmarked) [pomalidomide]	–	–	–	–	–	–	approximately 50%	–	–
O=C1CCC(N2C(=O)c3cccc4c(Cc5ccc(CN6CCN(C(=O)c7ccnc(-n8ccnc8)n7)CC6)cc5)ccc2c34)C(=O)N1 (centres unmarked) [Example 5, 3-(6-(4-((4-(2-(1H-imidazol-1-yl)pyrimidin-4-carbonyl)piperazin-1-yl)methyl)benzyl)-2-oxobenzo[cd]indol-1(2H)-yl)piperidin-2,6-dione]	10.22	0.23	68.4	0.12	73.8	–	–	–	–
O=C1CCC(N2C(=O)c3cccc4c(Cc5ccc(CN6CCN(C(=O)c7cccc(-n8ccnc8)n7)CC6)cc5)ccc2c34)C(=O)N1 (centres unmarked) [Example 4, 3-(6-(4-((4-(6-(1H-imidazol-1-yl)pyridin-2-carbonyl)piperazin-1-yl)methyl)benzyl)-2-oxobenzo[cd]indol-1(2H)-yl)piperidin-2,6-dione]	10.52	0.38	73.6	0.19	70.3	–	–	–	–
Cc1nc(N2CCN(Cc3ccc(Cc4ccc5c6c(cccc46)C(=O)N5[C@@H]4CCC(=O)NC4=O)cc3)CC2)cc(-n2cnc(C(F)(F)F)c2)n1 [Example 31, (R)-3-(6-(4-((4-(2-methyl-6-(4-(trifluoromethyl)-1H-imidazol-1-yl)pyrimidin-4-yl)piperazin-1-yl)methyl)benzyl)-2-oxobenzo[cd]indol-1(2H)-yl)piperidin-2,6-dione]	11.00	0.34	77	0.16	75	–	–	–	–
Cc1nc(N2CCN(Cc3ccc(Cc4ccc5c6c(cccc46)C(=O)N5C4CCC(=O)NC4=O)cc3)CC2)cc(-n2ncc(C(F)(F)F)n2)n1 (centres unmarked) [Example 76, 3-(6-(4-((4-(2-methyl-6-(4-(trifluoromethyl)-2H-1,2,3-triazol-2-yl)pyrimidin-4-yl)piperazin-1-yl)methyl)benzyl)-2-oxobenzo[cd]indol-1(2H)-yl)piperidin-2,6-dione]	10.00	–	–	–	–	–	–	–	–
O=C1CCC(N2C(=O)c3cccc4c(Cc5ccc(CN6CCC(NC(=O)c7cccc(-n8ccnc8)n7)CC6)cc5)ccc2c34)C(=O)N1 (centres unmarked) [Example 6, N-(1-(4-((1-(2,6-dioxopiperidin-3-yl)-2-oxo-1,2-dihydrobenzo[cd]indol-6-yl)methyl)benzyl)piperidin-4-yl)-6-(1H-imidazol-1-yl)pyridin-2-carboxamide]	10.15	–	–	–	–	–	–	–	–
O=C1CCC(N2C(=O)c3cccc4c(Cc5ccc(CN6CCN(c7ccnc(-n8ccnc8C(F)(F)F)n7)CC6)cc5)ccc2c34)C(=O)N1 (centres unmarked) [Example 13, 3-(2-oxo-6-(4-((4-(2-(2-(trifluoromethyl)-1H-imidazol-1-yl)pyrimidin-4-yl)piperazin-1-yl)methyl)benzyl)benzo[cd]indol-1(2H)-yl)piperidin-2,6-dione]	10.15	–	–	–	–	–	–	–	–
Cc1nc(N2CCN(Cc3ccc(Cc4ccc5c6c(cccc46)C(=O)N5C4CCC(=O)NC4=O)cc3)CC2)cc(-n2cnc(C)n2)n1 (single isomer, unassigned) [Example 47]	10.70	–	–	–	–	–	–	–	–
